# Results from publication PMC9203742 (Nature Communications, 2022).
# “And” between values parts separate entries of the source, which are not always exact repeats. Identical values can stand only once.
# How the values were obtained:
# Format in all cases: cell-based, mouse
# [1] = system: Purkinje cells in cerebellar slices from mGlu1^+/+ mice; assay: chemLTD recording (PF-EPSC) in Purkinje cells of acute cerebellar slices, mGlu1^+/+ mice; details: for PF-EPSC amplitude relative to time 0: mGlu1+/+, individual cells
# Procedure: (§1) Sagittal cerebellar slices were cut with a microslicer (Linear slicer Pro7; DOSAKA EM) in cutting solution buffer and then incubated in ACSF gassed with 5% CO2 and 95% O2 at room temperature.
# (§2) Whole-cell patch-clamp recordings were made from visually identified Purkinje cells using a 60× water-immersion objective attached to an upright microscope (BX51WI, Olympus) at room temperature, as described previously. […] Picrotoxin (100 µM; Sigma) was always added to the saline to block inhibitory synaptic transmission.
# (§3) To evoke EPSCs derived from CF (CF-EPSCs) and PF (PF-EPSCs) inputs onto Purkinje cells, square pulses were applied through a stimulating electrode placed on the granular layer and the molecular layer (50 µm away from the pial surface), respectively. The selective stimulation of CFs and PFs was confirmed by the paired-pulse depression (PPD) and paired-pulse facilitation (PPF) of EPSC amplitudes at a 50-ms interstimulus interval (ISI), respectively.
# (§4) For the LTD sessions, PF-EPSCs were recorded successively at a frequency of 0.1 Hz from Purkinje cells clamped at –80 mV. After a stable PF-EPSC amplitude had been observed for at least 5 min, a conjunctive stimulation that consisted of 30 single PF stimuli together with a 200 ms depolarizing pulse from a holding potential of –60 to +20 mV was applied for LTD induction.
# (§5) To chemically induce LTD (chemLTD), 50 µM (S)-3,5-dihydroxyphenylglycine (DHPG) or 1 µM Pd(sulfo-bpy) was applied for 10 min in a current-clamp mode. We often observed a transient decrease in PF-EPSC amplitude after the application of each drug probably because Purkinje cells under current-clamp conditions excite spontaneously to suppress presynaptic function through the retrograde signaling. Access resistances were monitored every 10 s by measuring the peak currents in response to 2 mV, 50-ms hyperpolarizing steps throughout the experiments; the measurements were discarded if the resistance changed by >20% of its original value. The normalized EPSC amplitude on the ordinate represents the EPSC amplitude for the average of six traces for 1 min divided by that of the average of six traces for 1 min immediately before the conjunctive stimulation or the drug application.
# [2] = system: Purkinje cells in cerebellar slices from mGlu1^CBC/CBC mice; assay: chemLTD recording (PF-EPSC) in Purkinje cells of acute cerebellar slices, mGlu1^CBC/CBC mice; details: for PF-EPSC amplitude relative to time 0: mGlu1CBC/CBC, individual cells
# Procedure: as §1, §2, §3, §4, §5
# [3] = system: GFP-positive Purkinje cells infected with AAV-L7-mGlu1^CBC; assay: chemLTD recording in GFP-positive Purkinje cells, slices infected with AAV-L7-mGlu1^CBC; details: for PF-EPSC amplitude normalized to time 0, individual Purkinje cells / PF-EPSC amplitude normalized to time 0, mean of cells: AAV-L7-mGlu1CBC
# [4] = 1 μM Pd(sulfo-bpy) for 10 min, t = 31−35 min
smiles,measurement,setting,value
Cc1ccnc(-c2cc(COCCCS(=O)(=O)[O-])ccn2)c1.[Cl][Pd][Cl].[Na+] [Pd(sulfo-bpy)],chemLTD: normalized PF-EPSC amplitude,[1]; [4],99 ± 4%
same,PF-EPSC amplitude relative to time 0,[1]; time 11 min,1.305 and 0.7371 and 0.3878 and 0.9487 and 0.6362 and 1.191 and 0.6572 and 0.79
same,PF-EPSC amplitude relative to time 0,[1]; time 12 min,1.203 and 0.9018 and 0.4484 and 1.074 and 0.6455 and 1.19 and 0.9598 and 0.8251
same,PF-EPSC amplitude relative to time 0,[1]; time 13 min,1.075 and 1.089 and 0.5282 and 1.162 and 0.6836 and 1.016 and 0.9614 and 0.7972
same,PF-EPSC amplitude relative to time 0,[1]; time 14 min,1.127 and 1.131 and 0.639 and 1.08 and 0.8118 and 0.8848 and 0.8669 and 0.886
same,PF-EPSC amplitude relative to time 0,[1]; time 15 min,0.8966 and 0.8928 and 0.5282 and 1.038 and 0.8059 and 0.9429 and 0.8907 and 0.8537
same,PF-EPSC amplitude relative to time 0,[1]; time 16 min,1.016 and 0.9829 and 0.5855 and 1.115 and 0.7312 and 0.9396 and 0.9005 and 0.8573
same,PF-EPSC amplitude relative to time 0,[1]; time 17 min,1.118 and 0.828 and 0.627 and 1.083 and 0.6712 and 0.9977 and 1.081 and 0.8535
same,PF-EPSC amplitude relative to time 0,[1]; time 18 min,1.106 and 0.9208 and 0.5918 and 1.166 and 0.7081 and 1.026 and 1.038 and 0.9503
same,PF-EPSC amplitude relative to time 0,[1]; time 19 min,1.038 and 0.7989 and 0.7251 and 1.08 and 0.721 and 0.8774 and 0.9331 and 0.9414
same,PF-EPSC amplitude relative to time 0,[1]; time 20 min,1.053 and 0.8133 and 0.2871 and 1.2251 and 0.7983 and 1.16 and 1.101 and 0.9444
same,PF-EPSC amplitude relative to time 0,[1]; time 21 min,1.169 and 0.7496 and 1.002 and 1.096 and 0.7681 and 0.9902 and 1.174 and 0.9728
same,PF-EPSC amplitude relative to time 0,[1]; time 22 min,1.26 and 0.9695 and 1.072 and 1.131 and 0.7557 and 1.075 and 1.029 and 0.936
same,PF-EPSC amplitude relative to time 0,[1]; time 23 min,1.263 and 0.7868 and 0.9511 and 1.11
same,chemLTD: normalized PF-EPSC amplitude,[2]; [4],71 ± 5%
same,PF-EPSC amplitude relative to time 0,[2]; time 11 min,0.6364 and 0.5841 and 0.6893 and 0.9073 and 0.8328 and 0.7699 and 0.718 and 0.7562 and 0.9988 and 0.8349 and 0.5757
same,PF-EPSC amplitude relative to time 0,[2]; time 12 min,0.827 and 0.5867 and 0.7148 and 0.9371 and 0.7788 and 0.6794 and 0.7449 and 0.7226 and 1.01 and 0.7931 and 0.6087
same,PF-EPSC amplitude relative to time 0,[2]; time 13 min,0.8172 and 0.6851 and 0.7171 and 1.091 and 0.7809 and 0.6502 and 0.6746 and 0.5919 and 1.019 and 0.8421 and 0.5537
same,PF-EPSC amplitude relative to time 0,[2]; time 14 min,0.7882 and 0.6733 and 0.6788 and 1.041 and 0.7381 and 0.6557 and 0.5543 and 0.7541 and 0.9808 and 0.752 and 0.5358
same,PF-EPSC amplitude relative to time 0,[2]; time 15 min,0.7548 and 0.7484 and 0.6382 and 0.9601 and 0.7893 and 0.6974 and 0.5323 and 0.7206 and 0.9958 and 0.7333 and 0.563
same,PF-EPSC amplitude relative to time 0,[2]; time 16 min,0.7642 and 0.6145 and 0.7007 and 0.8597 and 0.792 and 0.6967 and 0.6481 and 0.669 and 0.9606 and 0.6776 and 0.562
same,PF-EPSC amplitude relative to time 0,[2]; time 17 min,0.7633 and 0.6552 and 0.685 and 0.991 and 0.7793 and 0.8388 and 0.6612 and 0.7158 and 1.026 and 0.669 and 0.5661
same,PF-EPSC amplitude relative to time 0,[2]; time 18 min,0.7518 and 0.6433 and 0.6556 and 0.9807 and 0.8623 and 0.726 and 0.6303 and 0.6396 and 0.9248 and 0.6931 and 0.5685
same,PF-EPSC amplitude relative to time 0,[2]; time 19 min,0.7866 and 0.7223 and 0.6298 and 1.039 and 0.7923 and 0.7732 and 0.6413 and 0.6754 and 1.015 and 0.7024 and 0.4513
same,PF-EPSC amplitude relative to time 0,[2]; time 20 min,0.7361
same,chemLTD: normalized PF-EPSC amplitude,"[3]; 1 μM Pd(sulfo-bpy), t = 31−35 min",66 ± 5%
same,"PF-EPSC amplitude normalized to time 0, individual Purkinje cells",[3]; Time 11 min,0.7232 and 0.9829 and 0.3767 and 0.7388 and 0.7918 and 0.8459 and 0.9915
same,"PF-EPSC amplitude normalized to time 0, mean of cells",[3]; Time 11 min,0.7787
same,"PF-EPSC amplitude normalized to time 0, individual Purkinje cells",[3]; Time 12 min,0.6425 and 0.801 and 0.5915 and 0.6003 and 0.6904 and 0.8371 and 0.8565
same,"PF-EPSC amplitude normalized to time 0, mean of cells",[3]; Time 12 min,0.717
same,"PF-EPSC amplitude normalized to time 0, individual Purkinje cells",[3]; Time 13 min,0.6471 and 0.7787 and 0.7013 and 0.6809 and 0.7803 and 0.6727 and 0.8538
same,"PF-EPSC amplitude normalized to time 0, mean of cells",[3]; Time 13 min,0.7307
same,"PF-EPSC amplitude normalized to time 0, individual Purkinje cells",[3]; Time 14 min,0.6499 and 0.8303 and 0.7622 and 0.6113 and 0.7456 and 0.6953 and 0.8046
same,"PF-EPSC amplitude normalized to time 0, mean of cells",[3]; Time 14 min,0.7285
same,"PF-EPSC amplitude normalized to time 0, individual Purkinje cells",[3]; Time 15 min,0.6409 and 0.6767 and 0.8117 and 0.6223 and 0.7031 and 0.7146 and 0.8496
same,"PF-EPSC amplitude normalized to time 0, mean of cells",[3]; Time 15 min,0.717
same,"PF-EPSC amplitude normalized to time 0, individual Purkinje cells",[3]; Time 16 min,0.6376 and 0.7978 and 1.028 and 0.6558 and 0.8297 and 0.5765 and 0.8295
same,"PF-EPSC amplitude normalized to time 0, mean of cells",[3]; Time 16 min,0.765
same,"PF-EPSC amplitude normalized to time 0, individual Purkinje cells",[3]; Time 17 min,0.5747 and 0.6569 and 0.9755 and 0.6298 and 0.8796 and 0.5758 and 0.8309
